Source: ChEMBL document CHEMBL1201862, “PubChem BioAssay data set” (2004)
Activity calls are given as the source filed them.

How the values were obtained:
[1] = NIH-3T3 fibroblast cytotoxicity, dose response, cytotoxicity control, cell-based, fluorescence, Alamar Blue, secondary assay (AID 2327); format: functional;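 also: NIH-3T3 mouse fibroblasts cultured with fluconazole at 8 µg/mL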
[2] = C. albicans growth with fluconazole, confirmation, fluorescence, retest (AID 2467); format: functional, cell-based
[3] = target: T1, Adenosylmethionine-8-amino-7-oxononanoate aminotransferase (Mycobacterium tuberculosis, UniProt P9WQ81); experiment: Mycobacterium tuberculosis BioA enzyme inhibitor Measured in Biochemical System Using Plate Reader - 2163-02_Inhibitor_Dose_CherryPick_Activity.; format: functional, Mycobacterium tuberculosis UT205
T1 sequence (P9WQ81 whole entry): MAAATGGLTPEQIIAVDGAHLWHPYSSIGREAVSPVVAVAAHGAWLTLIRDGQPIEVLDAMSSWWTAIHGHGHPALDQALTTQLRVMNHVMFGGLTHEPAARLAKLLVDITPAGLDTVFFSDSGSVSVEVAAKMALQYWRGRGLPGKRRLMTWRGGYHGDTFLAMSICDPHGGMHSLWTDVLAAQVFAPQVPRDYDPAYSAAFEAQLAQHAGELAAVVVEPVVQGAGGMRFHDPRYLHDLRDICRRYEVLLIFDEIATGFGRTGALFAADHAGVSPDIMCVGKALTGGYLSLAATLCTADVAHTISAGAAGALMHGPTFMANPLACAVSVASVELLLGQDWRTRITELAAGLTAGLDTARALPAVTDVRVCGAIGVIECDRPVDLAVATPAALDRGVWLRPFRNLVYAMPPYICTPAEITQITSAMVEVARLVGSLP

[4] = target: Protein-tyrosine kinase 2-beta (Homo sapiens, UniProt Q14289);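 also: potency of inhibitors of PYK2 kinase phosphorylation of poly-GT substrate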
Chain of Protein-tyrosine kinase 2-beta (Q14289 whole entry): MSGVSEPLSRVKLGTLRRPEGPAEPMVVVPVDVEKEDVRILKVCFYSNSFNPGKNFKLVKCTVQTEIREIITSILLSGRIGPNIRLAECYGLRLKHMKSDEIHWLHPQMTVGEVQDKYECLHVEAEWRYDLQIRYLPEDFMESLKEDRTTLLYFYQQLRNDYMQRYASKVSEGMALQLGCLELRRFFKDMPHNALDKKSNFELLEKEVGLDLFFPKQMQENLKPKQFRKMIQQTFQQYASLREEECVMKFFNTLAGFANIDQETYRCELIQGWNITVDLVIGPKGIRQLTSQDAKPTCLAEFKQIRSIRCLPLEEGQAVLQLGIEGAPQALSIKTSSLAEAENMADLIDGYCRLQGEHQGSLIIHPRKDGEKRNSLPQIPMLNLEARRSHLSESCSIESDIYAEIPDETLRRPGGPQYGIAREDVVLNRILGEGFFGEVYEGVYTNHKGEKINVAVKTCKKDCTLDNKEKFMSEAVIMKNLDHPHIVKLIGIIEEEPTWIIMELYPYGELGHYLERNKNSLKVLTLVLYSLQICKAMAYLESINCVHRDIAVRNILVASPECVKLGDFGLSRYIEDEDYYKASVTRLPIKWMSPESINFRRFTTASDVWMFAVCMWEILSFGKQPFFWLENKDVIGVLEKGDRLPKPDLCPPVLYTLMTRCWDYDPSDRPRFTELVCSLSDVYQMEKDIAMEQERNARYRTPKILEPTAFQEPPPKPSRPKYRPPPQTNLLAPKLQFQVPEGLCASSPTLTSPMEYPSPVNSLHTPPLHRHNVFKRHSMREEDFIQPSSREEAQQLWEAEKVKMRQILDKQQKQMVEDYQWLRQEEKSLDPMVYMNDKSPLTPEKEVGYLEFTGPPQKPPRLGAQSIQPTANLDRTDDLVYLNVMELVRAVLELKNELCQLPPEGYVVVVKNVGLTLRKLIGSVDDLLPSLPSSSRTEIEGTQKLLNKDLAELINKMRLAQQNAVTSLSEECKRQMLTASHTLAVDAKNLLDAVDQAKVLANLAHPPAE

Cytochrome P450 2C9 = Cytochrome P450 2C9 (Homo sapiens, UniProt P11712)
Chain of Cytochrome P450 2C9 (P11712 whole entry): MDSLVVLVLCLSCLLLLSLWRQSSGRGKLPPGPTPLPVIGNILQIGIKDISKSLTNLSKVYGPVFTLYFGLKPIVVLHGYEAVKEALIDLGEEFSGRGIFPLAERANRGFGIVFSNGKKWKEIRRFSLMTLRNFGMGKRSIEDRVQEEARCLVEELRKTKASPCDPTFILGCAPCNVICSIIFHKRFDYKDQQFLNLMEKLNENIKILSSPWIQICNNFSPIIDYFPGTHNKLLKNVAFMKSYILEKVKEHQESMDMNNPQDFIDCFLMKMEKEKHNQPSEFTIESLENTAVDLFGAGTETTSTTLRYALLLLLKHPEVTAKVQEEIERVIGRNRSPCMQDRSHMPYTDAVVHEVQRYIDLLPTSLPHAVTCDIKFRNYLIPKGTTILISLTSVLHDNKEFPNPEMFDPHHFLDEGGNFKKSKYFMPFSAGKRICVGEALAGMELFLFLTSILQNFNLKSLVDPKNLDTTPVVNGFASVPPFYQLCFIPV

[5] = target: Peroxisome proliferator-activated receptor gamma/Nuclear receptor coactivator 3 (Homo sapiens, UniProt P37231); format: functional;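 also: agonist potency for raising coactivator recruitment to the receptor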
Chain of Peroxisome proliferator-activated receptor gamma/Nuclear receptor coactivator 3 (P37231 whole entry): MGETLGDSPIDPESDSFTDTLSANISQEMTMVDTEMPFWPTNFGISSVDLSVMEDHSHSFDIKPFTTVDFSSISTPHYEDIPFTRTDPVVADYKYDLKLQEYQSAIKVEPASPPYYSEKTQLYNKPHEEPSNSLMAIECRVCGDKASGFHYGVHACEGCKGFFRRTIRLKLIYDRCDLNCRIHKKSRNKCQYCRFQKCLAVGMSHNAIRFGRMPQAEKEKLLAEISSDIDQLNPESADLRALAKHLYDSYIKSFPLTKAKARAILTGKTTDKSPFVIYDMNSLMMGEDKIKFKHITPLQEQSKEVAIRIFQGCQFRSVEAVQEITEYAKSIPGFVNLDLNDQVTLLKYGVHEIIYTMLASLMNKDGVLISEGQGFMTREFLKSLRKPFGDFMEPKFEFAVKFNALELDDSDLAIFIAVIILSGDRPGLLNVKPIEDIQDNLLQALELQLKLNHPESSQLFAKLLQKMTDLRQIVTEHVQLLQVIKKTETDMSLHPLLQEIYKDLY
Chain of Peroxisome proliferator-activated receptor gamma/Nuclear receptor coactivator 3 (Q9Y6Q9 whole entry, further chain): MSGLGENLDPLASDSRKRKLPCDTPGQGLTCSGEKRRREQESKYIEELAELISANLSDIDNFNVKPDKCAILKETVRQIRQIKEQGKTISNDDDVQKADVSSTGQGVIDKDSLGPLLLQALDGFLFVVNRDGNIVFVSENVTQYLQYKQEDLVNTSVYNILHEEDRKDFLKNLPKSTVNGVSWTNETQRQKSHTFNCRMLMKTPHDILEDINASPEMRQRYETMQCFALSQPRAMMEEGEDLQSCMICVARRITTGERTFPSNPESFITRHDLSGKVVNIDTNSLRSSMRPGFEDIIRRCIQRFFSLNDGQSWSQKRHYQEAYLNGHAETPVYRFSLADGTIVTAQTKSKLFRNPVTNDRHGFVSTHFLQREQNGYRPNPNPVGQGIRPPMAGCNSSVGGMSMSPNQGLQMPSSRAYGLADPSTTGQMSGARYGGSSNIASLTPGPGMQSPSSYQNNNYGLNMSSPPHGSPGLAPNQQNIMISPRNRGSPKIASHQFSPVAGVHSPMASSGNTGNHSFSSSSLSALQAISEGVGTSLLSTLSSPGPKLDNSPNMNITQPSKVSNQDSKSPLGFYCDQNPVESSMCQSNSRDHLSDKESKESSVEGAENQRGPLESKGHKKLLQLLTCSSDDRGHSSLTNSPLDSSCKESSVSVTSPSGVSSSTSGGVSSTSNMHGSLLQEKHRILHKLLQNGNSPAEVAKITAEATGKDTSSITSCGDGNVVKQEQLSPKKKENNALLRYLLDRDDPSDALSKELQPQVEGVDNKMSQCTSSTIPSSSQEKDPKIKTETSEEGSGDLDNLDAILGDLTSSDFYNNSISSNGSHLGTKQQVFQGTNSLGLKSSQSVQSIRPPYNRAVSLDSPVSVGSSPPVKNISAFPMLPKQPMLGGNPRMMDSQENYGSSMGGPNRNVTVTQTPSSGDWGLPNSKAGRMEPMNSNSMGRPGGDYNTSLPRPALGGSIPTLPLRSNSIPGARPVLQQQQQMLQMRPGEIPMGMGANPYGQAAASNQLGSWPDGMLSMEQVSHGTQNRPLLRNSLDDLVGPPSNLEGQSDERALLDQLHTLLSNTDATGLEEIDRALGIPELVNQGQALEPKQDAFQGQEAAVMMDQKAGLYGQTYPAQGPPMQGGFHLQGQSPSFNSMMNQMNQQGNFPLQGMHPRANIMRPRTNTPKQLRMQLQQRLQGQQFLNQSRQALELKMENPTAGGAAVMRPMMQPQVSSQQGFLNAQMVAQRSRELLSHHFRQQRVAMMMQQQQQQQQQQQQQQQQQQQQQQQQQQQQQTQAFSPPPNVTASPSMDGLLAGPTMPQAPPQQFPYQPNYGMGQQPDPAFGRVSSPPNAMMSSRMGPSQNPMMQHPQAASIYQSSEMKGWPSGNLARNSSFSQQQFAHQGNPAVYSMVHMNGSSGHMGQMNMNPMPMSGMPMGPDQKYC

[6] = target: Peroxisome proliferator-activated receptor gamma/Nuclear receptor coactivator 2 (Homo sapiens, UniProt P37231); format: functional;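 also: agonist potency for raising coactivator recruitment to the receptor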
HeLa = experiment: HeLa cell cytotoxicity, dose response, cytotoxicity control for MITF activator project, CellTiter-Glo luminescence, cherry-pick samples (AID 540259); format: functional, cell-based; conditions: Homo sapiens
[7] = target: Peroxisome proliferator-activated receptor gamma/Nuclear receptor coactivator 1 (Homo sapiens, UniProt P37231); format: functional;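 also: agonist potency as compounds enhance coactivator SRC-1 recruitment to PPARgamma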
[8] = inhibitors of Vif binding to APOBEC3G peptide, primary screen, biochemical, TR-FRET, GST-Vif 1-94, biotin-A3G peptide, dose response retest (AID 1117319); format: functional;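 also: TR-FRET signal of purified GST-Vif binding a biotinylated A3G peptide; inhibitors lower the FRET signal by blocking Vif and A3G binding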
[9] = target: T2, Trace amine-associated receptor 1 (Homo sapiens, UniProt Q96RJ0); experiment: Counterscreen for agonists of the human trace amine associated receptor 1 (hTAAR1): Fluorescence-based cell-based high throughput dose response assay to identify hTAAR1 agonist that also desensitize TAAR1 receptor response.; format: functional
T2 sequence (Q96RJ0 whole entry): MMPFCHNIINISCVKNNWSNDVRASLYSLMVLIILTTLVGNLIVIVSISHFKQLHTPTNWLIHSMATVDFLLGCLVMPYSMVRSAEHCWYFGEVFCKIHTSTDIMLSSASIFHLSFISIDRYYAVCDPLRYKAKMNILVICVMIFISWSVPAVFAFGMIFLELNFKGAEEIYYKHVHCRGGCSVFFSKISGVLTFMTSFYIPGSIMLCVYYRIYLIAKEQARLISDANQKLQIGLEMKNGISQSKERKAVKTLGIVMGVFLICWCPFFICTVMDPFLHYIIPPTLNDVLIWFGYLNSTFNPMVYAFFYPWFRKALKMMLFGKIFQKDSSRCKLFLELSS

cells [10] = format: functional, cell-based
cells [11] = format: functional, cell-based; remark: listed apart in the source
[12] = target: T2, Trace amine-associated receptor 1; experiment: Fluorescence-based cell-based high throughput dose response assay to identify agonists of the human trace amine associated receptor 1 (TAAR1).; format: functional
[13] = target: Voltage-dependent T-type calcium channel subunit alpha-1H (Homo sapiens, UniProt O95180); format: functional;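 also: channel activity triggered by adding a high calcium stimulation buffer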
Nonstructural protein 1 = Nonstructural protein 1 (Influenza A virus, UniProt Q194T2); format: functional, Influenza A virus (A/California/07/2009(H1N1))
Chain of Nonstructural protein 1 (Q194T2 whole entry): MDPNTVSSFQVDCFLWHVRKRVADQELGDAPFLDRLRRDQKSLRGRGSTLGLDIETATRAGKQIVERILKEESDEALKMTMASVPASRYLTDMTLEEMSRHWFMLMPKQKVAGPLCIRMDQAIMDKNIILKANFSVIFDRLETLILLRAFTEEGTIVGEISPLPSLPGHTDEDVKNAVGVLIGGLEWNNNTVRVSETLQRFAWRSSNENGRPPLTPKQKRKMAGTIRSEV

[14] = IGROV1 ovarian cancer cell cytotoxicity, dose response, PAX8 inhibitor project, plate reader, dry powder samples (AID 743043); format: functional, cell-based; conditions: IGROV-1
[15] = NIH:OVCAR-3 ovarian cancer cell cytotoxicity, dose response, PAX8 inhibitor project, plate reader, dry powder samples (AID 743044); format: functional, cell-based
Paired box protein Pax-8 = Paired box protein Pax-8 (Homo sapiens, UniProt Q06710); experiment: inhibitors of PAX8-driven TPO luciferase reporter, dose response, RMG-I cells, cherry-pick (AID 687027); format: functional, cell-based;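 also: luciferase reporter driven by Pax8 target thyroperoxidase promoter measured by SteadyGlo luminescence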
Chain of Paired box protein Pax-8 (Q06710 whole entry): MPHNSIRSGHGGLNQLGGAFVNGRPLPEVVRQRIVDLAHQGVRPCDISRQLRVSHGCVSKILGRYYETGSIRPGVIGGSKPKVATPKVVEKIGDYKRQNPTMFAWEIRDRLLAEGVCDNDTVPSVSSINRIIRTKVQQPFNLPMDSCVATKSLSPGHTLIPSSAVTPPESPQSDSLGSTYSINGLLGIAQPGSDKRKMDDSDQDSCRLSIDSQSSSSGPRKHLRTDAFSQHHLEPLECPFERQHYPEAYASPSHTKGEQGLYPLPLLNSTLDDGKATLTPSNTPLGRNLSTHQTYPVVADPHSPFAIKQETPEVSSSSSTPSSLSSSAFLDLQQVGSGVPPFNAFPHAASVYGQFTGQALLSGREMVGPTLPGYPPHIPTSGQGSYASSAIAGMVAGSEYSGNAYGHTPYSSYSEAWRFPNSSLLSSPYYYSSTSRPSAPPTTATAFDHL

[16] = target: Eukaryotic translation initiation factor 4E (Mus musculus, UniProt P63073); experiment: eIF4E–eIF4G protein interaction inhibitors, dose response, biochemical, TR-FRET (AID 855); format: functional;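 also: potency for disrupting eIF4E binding to eIF4GI seen as loss of FRET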
Chain of Eukaryotic translation initiation factor 4E (P63073 whole entry): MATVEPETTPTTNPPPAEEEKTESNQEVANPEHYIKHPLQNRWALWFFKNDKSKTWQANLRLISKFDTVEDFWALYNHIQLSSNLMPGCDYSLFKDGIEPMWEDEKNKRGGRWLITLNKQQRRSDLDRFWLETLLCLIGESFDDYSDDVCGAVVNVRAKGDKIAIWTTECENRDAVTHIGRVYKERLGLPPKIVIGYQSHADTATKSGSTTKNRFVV

cells [17] = format: functional
[18] = Vero E6 cell cytotoxicity, dose response, cytotoxicity control for non-replicating M. tuberculosis project, secondary assay (AID 492998); format: functional, VeroE6; conditions: Vero C1008
[19] = target: T3, Ubiquitin-conjugating enzyme E2 N (Homo sapiens, UniProt P61088); format: functional
T3 sequence (P61088 whole entry): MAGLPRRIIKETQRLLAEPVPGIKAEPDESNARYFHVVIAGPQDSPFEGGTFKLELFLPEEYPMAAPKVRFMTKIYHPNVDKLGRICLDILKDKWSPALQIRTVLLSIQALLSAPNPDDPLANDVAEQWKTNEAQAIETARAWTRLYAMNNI

[20] = target: T3, Ubiquitin-conjugating enzyme E2 N; format: functional; remark: listed apart in the source
Bcl-2-related protein A1 = target: T4, Bcl-2-related protein A1 (Mus musculus, UniProt Q07440); format: functional;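 also: confirmatory dose–response counterscreen on Bfl-1, used to check hits from a UBC13 polyubiquitin inhibitor campaign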
T4 sequence (Q07440 whole entry): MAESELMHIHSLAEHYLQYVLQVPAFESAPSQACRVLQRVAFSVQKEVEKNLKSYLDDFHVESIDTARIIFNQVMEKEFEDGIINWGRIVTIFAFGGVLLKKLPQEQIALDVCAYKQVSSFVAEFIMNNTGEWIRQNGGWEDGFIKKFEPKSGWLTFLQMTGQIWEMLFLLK

[21] = target: Induced myeloid leukemia cell differentiation protein Mcl-1 (Homo sapiens, UniProt Q07820); format: functional
Chain of Induced myeloid leukemia cell differentiation protein Mcl-1 (Q07820 whole entry): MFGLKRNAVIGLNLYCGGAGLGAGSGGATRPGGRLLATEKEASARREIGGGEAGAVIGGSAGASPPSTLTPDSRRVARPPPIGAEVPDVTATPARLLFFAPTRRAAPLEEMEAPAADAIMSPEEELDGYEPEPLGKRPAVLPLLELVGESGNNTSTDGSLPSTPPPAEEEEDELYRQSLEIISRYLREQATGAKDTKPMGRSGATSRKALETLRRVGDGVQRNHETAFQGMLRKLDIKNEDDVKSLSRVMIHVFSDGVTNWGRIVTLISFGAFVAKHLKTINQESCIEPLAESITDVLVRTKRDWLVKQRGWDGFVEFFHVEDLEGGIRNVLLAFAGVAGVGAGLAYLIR

[22] = target: T5, Voltage-gated N-type calcium channel alpha-1B subunit/Amyloid beta A4 precursor protein-binding family A member 1 (Homo sapiens, UniProt Q00975+Q02410); format: protein assay
[23] = target: T5, Voltage-gated N-type calcium channel alpha-1B subunit/Amyloid beta A4 precursor protein-binding family A member 1; format: protein assay; remark: listed apart in the source
Streptococcus = experiment: Group A Streptococcus viability loss, dose response, counter-screen for streptokinase expression inhibitor project, luminescence, BacTiterGlo (AID 1915); format: functional, organism-based;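 also: potency for reduction of bacterial viability or growth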
[24] = THP-1 cell cytotoxicity, dose response, cytotoxicity control for non-replicating M. tuberculosis project (AID 489025); format: functional
[25] = test system: Streptococcus sp. 'group A'; experiment: growth inhibition of control SK(-) GAS strain, dose response, counter-screen for streptokinase expression inhibitor project, luminescence, kanamycin, BacTiterGlo, confirmation (AID 1900); format: functional, organism-based
[26] = inhibitors of intracellular T. cruzi replication, confirmation, NIH3T3 host cells, beta-gal luminescence (AID 2044); format: functional, cell-based;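 also: intracellular parasites grown in NIH/3T3 mouse fibroblasts as host cells; luminescent beta-galactosidase reporter signal from transgenic T. cruzi replicating inside host cells; inhibitors lower the luminescence signal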
[27] = cytotoxicity toward NIH3T3 fibroblasts, dose response, counter-screen, cell-based, ATP luminescence, mouse fibroblasts (AID 2010); format: functional;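 also: cells exposed to compound for about 90 hours before reading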
[28] = cytotoxicity in OVCAR8 ovarian cancer cells, dose response, PAX8 project, cell-based, plate reader, dry powder samples (AID 743197); format: functional; conditions: OVCAR-8

CCOC(=O)CNC(=O)c1sc2ncnc(N3CCc4ccccc4C3)c2c1C
EC50 [1]: > 150 µM (inactive)
EC50 [2]: 3.42 µM (active)
AC50 [3]: 4.06 µM (active)
IC50 [4]: 41.7 µM (not active)

O=C(Nc1ccc(N2CCCCC2)cc1)c1cncc(Br)c1
AC50 (Cytochrome P450 2C9): 14.1 µM (inconclusive)
EC50 [5]: > 79.4 µM (not active)
EC50 [6]: > 79.4 µM (not active)
AC50 (HeLa): 50.2 µM (active)
EC50 [7]: > 79.4 µM (not active)

O=C(Nc1ccc2c(c1)OCCO2)C1CCC1
IC50 [8]: > 100 µM (active)

O=C(O)c1cccc(NCc2ccncc2)c1
IC50 [8]: > 100 µM (active)

CN(CCc1ccccc1)C(C(=O)c1ccc2c(c1)OCO2)c1nnnn1-c1ccccc1NC(=O)OC(C)(C)C (stereo not given)
IC50 [9]: 3.26 µM (active)
IC50 (cells [10]): > 29.9 µM (inactive)
EC50 (cells [11]): > 29.9 µM (inactive)
EC50 [12]: 0.881 µM (active)

CCCCn1nnc(NC(=O)c2ccc(-c3cccc(Cl)c3)o2)n1
EC50 [13]: 4.23 µM (active)
IC50 [8]: > 100 µM (active)

Cc1ccc2c(c1)C1CN(C)CCC1N2S(=O)(=O)c1ccc(Oc2ccc([N+](=O)[O-])cc2)cc1 (stereo not given)
IC50 (Nonstructural protein 1): > 100 µM (active)

Clc1cccc2c3c([nH]c12)CCNC3
IC50 [9]: 22.1 µM (inactive)
IC50 (cells [10]): > 29.9 µM (inactive)
EC50 (cells [11]): > 29.9 µM (inactive)
EC50 [12]: 1.36 µM (active)

C[C@@H]1CN([C@@H](C)CO)C(=O)Cc2cc(NC(=O)CCC(F)(F)F)ccc2O[C@H]1CN(C)Cc1ccc(Oc2ccccc2)cc1
AC50 [14]: 41.7 µM (active)
AC50 [15]: 26.4 µM (active)
AC50 (Paired box protein Pax-8): 10.6 µM (active)

CCCCCC(=O)NC(N=C(S)NC1CCS(=O)(=O)C1)C(Cl)(Cl)Cl (stereo not given)
IC50 [16]: > 64 µM (inactive)

CC(C)(C)c1ccc(-c2nc(C#N)c(NCCCn3ccnc3)o2)cc1
IC50 (cells [17]): 25.4 µM (active)
CC50 [18]: > 20 µM (active)

Cc1nc2ccccc2n1C1CCN(CC(=O)Nc2ccccc2Br)CC1 [ASN06356088]
IC50 [19]: > 20 µM (inactive)
IC50 [20]: 16.4 µM (active)
IC50 (Bcl-2-related protein A1): > 20 µM (inactive)

CC(C)CCNC(=O)NC(=O)COC(=O)/C=C/c1cnc2ccccc2n1
EC50 [5]: 35.9 µM (not active)
EC50 [6]: 32 µM (not active)
EC50 [7]: 49.5 µM (not active)

CCC1=NNc2cccc3c(OC)ccc1c23
IC50 [21]: 8.79 µM (not active)
IC50 [22]: 0.586 µM (active)
IC50 [4]: 2.15 µM (active)
IC50 [23]: 0.521 µM (active)

Nc1sc2c(c1C(=O)NCCc1ccccc1)CCC2
IC50 [9]: 9.93 µM (active)
IC50 (cells [10]): > 29.9 µM (inactive)
EC50 (cells [11]): > 29.9 µM (inactive)
EC50 [12]: 3.36 µM (active)

Cc1cc(Nc2ccccc2)n(-c2nc3ccccc3[nH]2)n1
EC50 (Streptococcus): 5.5 µM (active)
CC50 [24]: 38 µM (active)
IC50 (cells [17]): 1.07 µM (active)
CC50 [18]: 18.8 µM (active)
EC50 [25]: 2.16 µM (active)

Cc1oc(-c2ccccc2Cl)nc1CS(=O)(=O)CC(=O)NCCc1ccccc1
IC50 [9]: 8.19 µM (active)
IC50 (cells [10]): 18.3 µM (inactive)
EC50 (cells [11]): > 29.9 µM (inactive)
EC50 [12]: 2.9 µM (active)

Cc1ccccc1NC(=O)Cn1nnc2c(cnn2-c2ccc(F)cc2)c1=O
IC50 [16]: > 64 µM (inactive)

CN1CCC(O)(c2cccs2)C(C(=O)c2cccs2)C1 (stereo not given)
IC50 (cells [17]): 15.4 µM (active)
CC50 [18]: > 20 µM (active)

Cc1ccc2nsnc2c1S(=O)(=O)Nc1cccc2nsnc12
IC50 [4]: 6.7 µM (active)

Cc1cc(C)c2sc(N(CCCN(C)C)C(=O)c3ccc(S(=O)(=O)N(C)C4CCCCC4)cc3)nc2c1
IC50 [19]: 10 µM (active)
IC50 [20]: 10.6 µM (active)
IC50 (Bcl-2-related protein A1): > 20 µM (inactive)
EC50 [26]: 0.385 µM (active)
EC50 [27]: > 30 µM (not active)

O=C1CN(S(=O)(=O)Cc2ccccc2)C[C@@H]2[C@@H](c3ccc(C#CC4CC4)cc3)[C@@H](CO)N12
AC50 [28]: 53.1 µM (active)
AC50 [14]: 61 µM (active)
AC50 [15]: 5.98 µM (active)
AC50 (Paired box protein Pax-8): 4.66 µM (active)

O=C(CSc1nnc(CNc2ccccc2)o1)N1CCc2ccccc21
IC50 [16]: > 64 µM (inactive)
